Our source for the IC50 values is BindingDB's records for doi:10.1016/s0960-894x(00)00360-7 (Smithkline Beecham Pharmaceuticals, 2000).

As a reminder, the IC50 is the midpoint of a concentration-inhibition curve.

The target in the test is Arginine--tRNA ligase (Staphylococcus aureus). As to the kind of experiment: Inhibitory activity against cognate Staphylococcus aureus Arginyl-tRNA synthetase.

For `N=C(N)NCCC[C@H](N)C(=O)NS(=O)(=O)OC[C@H]1O[C@@H](n2cnc3c(N)ncnc32)[C@H](O)[C@@H]1O` [Aminoalkyl adenylate and aminoacyl sulfamate analogue], 4.5 nM corresponded to half-maximal inhibition (IC50).
